Test results taken from PMC9172056 (Journal of medicinal chemistry, 2022).

Tests used:
in vitro = conditions: cat
SARS-CoV-2 3CL^pro = SARS-CoV-2 3CL^pro (Severe acute respiratory syndrome coronavirus 2, UniProt P0DTD1); experiment: biochemical; assay type: biochemical
MERS-CoV 3CL^pro = MERS-CoV 3CL^pro (Middle East respiratory syndrome-related coronavirus, UniProt K9N7C7); experiment: biochemical
Sequence of MERS-CoV 3CL^pro (K9N7C7 3248-3553 limits assumed): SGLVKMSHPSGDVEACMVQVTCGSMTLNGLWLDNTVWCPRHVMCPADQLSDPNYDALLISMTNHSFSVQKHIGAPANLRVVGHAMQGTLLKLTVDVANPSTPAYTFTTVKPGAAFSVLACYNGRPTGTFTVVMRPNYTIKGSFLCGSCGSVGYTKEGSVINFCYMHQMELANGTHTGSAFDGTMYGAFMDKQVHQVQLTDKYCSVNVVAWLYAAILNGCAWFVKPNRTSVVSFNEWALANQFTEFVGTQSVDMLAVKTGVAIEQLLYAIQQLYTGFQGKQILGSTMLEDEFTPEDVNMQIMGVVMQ

Row | Structure (SMILES) | CC50 (in vitro) | IC50 (SARS-CoV-2 3CL^pro) | IC50 (MERS-CoV 3CL^pro) | fold lower IC50 than compound 1b (SARS-CoV-2 3CL^pro)
1 | CC(C)C[C@H](NC(=O)OC1CC2(C1)CN(C(=O)OC(C)(C)C)C2)C(=O)N[C@H](C=O)C[C@H]1CCNC1=O [Compound 1b, tert-Butyl 6-((((S)-4-methyl-1-oxo-1-(((S)-1-oxo-3-((R)-2-oxopyrrolidin-3-yl)propan-2-yl)amino)pentan-2-yl)carbamoyl)oxy)-2-azaspiro[3.3]heptane-2-carboxylate] | > 100 µM | – | – | –
2 | CC(C)C[C@H](NC(=O)OC1CC2(C1)CN(C(=O)OC(C)(C)C)C2)C(=O)N[C@@H](C[C@H]1CCNC1=O)C(O)S(=O)(=O)O (stereo partly drawn) [Compound 1c, Sodium (2S)-2-((S)-2-((((2-(tert-butoxycarbonyl)-2-azaspiro[3.3]heptan-6-yl)oxy)carbonyl)amino)-4-methylpentanamido)-1-hydroxy-3-((R)-2-oxopyrrolidin-3-yl)propane-1-sulfonate] | > 100 µM | 0.85 ± 0.07 µM | 0.28 ± 0.11 µM | –
3 | CC(C)C[C@H](NC(=O)OC1CC2(C1)CN(C(=O)C(C)C)C2)C(=O)N[C@H](C=O)C[C@H]1CCNC1=O [Compound 2b, 2-Isobutyryl-2-azaspiro[3.3]heptan-6-yl ((S)-4-methyl-1-oxo-1-(((S)-1-oxo-3-((R)-2-oxopyrrolidin-3-yl)propan-2-yl)amino)pentan-2-yl)carbamate] | > 100 µM | – | – | –
4 | CC(C)C[C@H](NC(=O)OC1CC2(C1)CN(C(=O)C(C)C)C2)C(=O)N[C@@H](C[C@H]1CCNC1=O)C(O)S(=O)(=O)O (stereo partly drawn) [Compound 2c, Sodium (2S)-1-hydroxy-2-((S)-2-((((2-isobutyryl-2-azaspiro[3.3]heptan-6-yl)oxy)carbonyl)amino)-4-methylpentanamido)-3-((R)-2-oxopyrrolidin-3-yl)propane-1-sulfonate] | > 100 µM | 0.65 ± 0.07 µM | 0.55 ± 0.07 µM | –
5 | CC(C)C[C@H](NC(=O)OC1CC2(C1)CN(C(=O)Cc1ccccc1)C2)C(=O)N[C@H](C=O)C[C@H]1CCNC1=O [Compound 3b, 2-(2-Phenylacetyl)-2-azaspiro[3.3]heptan-6-yl ((S)-4-methyl-1-oxo-1-(((S)-1-oxo-3-((R)-2-oxopyrrolidin-3-yl)propan-2-yl)amino)pentan-2-yl)carbamate] | > 100 µM | – | – | ~13 fold
6 | CC(C)C[C@H](NC(=O)OC1CC2(C1)CN(C(=O)Cc1ccccc1)C2)C(=O)N[C@@H](C[C@H]1CCNC1=O)C(O)S(=O)(=O)O (stereo partly drawn) [Compound 3c, Sodium (2S)-1-hydroxy-2-((S)-4-methyl-2-((((2-(2-phenylacetyl)-2-azaspiro[3.3]heptan-6-yl)oxy)carbonyl)amino)pentanamido)-3-((R)-2-oxopyrrolidin-3-yl)propane-1-sulfonate] | > 100 µM | 0.26 ± 0.05 µM | 0.13 ± 0.03 µM | –
7 | CC(C)C[C@H](NC(=O)OC1CC2(C1)CN(S(C)(=O)=O)C2)C(=O)N[C@H](C=O)C[C@H]1CCNC1=O [Compound 4b, 2-(Methylsulfonyl)-2-azaspiro[3.3]heptan-6-yl ((S)-4-methyl-1-oxo-1-(((S)-1-oxo-3-((R)-2-oxopyrrolidin-3-yl)propan-2-yl)amino)pentan-2-yl)carbamate] | > 100 µM | – | – | –
8 | CC(C)C[C@H](NC(=O)OC1CC2(C1)CN(S(C)(=O)=O)C2)C(=O)N[C@@H](C[C@H]1CCNC1=O)C(O)S(=O)(=O)O (stereo partly drawn) [Compound 4c, Sodium (2S)-1-hydroxy-2-((S)-4-methyl-2-((((2-(methylsulfonyl)-2-azaspiro[3.3]heptan-6-yl)oxy)carbonyl)amino)pentanamido)-3-((R)-2-oxopyrrolidin-3-yl)propane-1-sulfonate] | > 100 µM | 0.76 ± 0.08 µM | 0.16 ± 0.01 µM | –
9 | CC(C)C[C@H](NC(=O)OC1CC2(CCN(C(=O)OC(C)(C)C)C2)C1)C(=O)N[C@H](C=O)C[C@H]1CCNC1=O (stereo partly drawn) [Compound 5b, tert-Butyl 2-((((S)-4-methyl-1-oxo-1-(((S)-1-oxo-3-((R)-2-oxopyrrolidin-3-yl)propan-2-yl)amino)pentan-2-yl)carbamoyl)oxy)-6-azaspiro[3.4]octane-6-carboxylate] | > 100 µM | – | 0.7 ± 0.14 µM | –
10 | CC(C)C[C@H](NC(=O)OC1CC2(CCN(C(=O)OC(C)(C)C)C2)C1)C(=O)N[C@@H](C[C@H]1CCNC1=O)C(O)S(=O)(=O)O (stereo partly drawn) [Compound 5c, Sodium (2S)-2-((S)-2-((((6-(tert-butoxycarbonyl)-6-azaspiro[3.4]octan-2-yl)oxy)carbonyl)amino)-4-methylpentanamido)-1-hydroxy-3-((R)-2-oxopyrrolidin-3-yl)propane-1-sulfonate] | > 100 µM | 0.75 ± 0.07 µM | 0.75 ± 0.07 µM | –
11 | CC(C)C[C@H](NC(=O)OC1CCC2(C1)CN(C(=O)OC(C)(C)C)C2)C(=O)N[C@H](C=O)C[C@H]1CCNC1=O (stereo partly drawn) [Compound 6b, tert-Butyl 6-((((S)-4-methyl-1-oxo-1-(((S)-1-oxo-3-((R)-2-oxopyrrolidin-3-yl)propan-2-yl)amino)pentan-2-yl)carbamoyl)oxy)-2-azaspiro[3.4]octane-2-carboxylate] | > 100 µM | – | – | –
12 | CC(C)C[C@H](NC(=O)OC1CCC2(C1)CN(C(=O)OC(C)(C)C)C2)C(=O)N[C@@H](C[C@H]1CCNC1=O)C(O)S(=O)(=O)O (stereo partly drawn) [Compound 6c, Sodium (2S)-2-((2S)-2-((((2-(tert-butoxycarbonyl)-2-azaspiro[3.4]octan-6-yl)oxy)carbonyl)amino)-4-methylpentanamido)-1-hydroxy-3-((R)-2-oxopyrrolidin-3-yl)propane-1-sulfonate] | > 100 µM | 1.2 ± 0.14 µM | 1.3 ± 0.14 µM | –
13 | CC(C)C[C@H](NC(=O)OC1CC2(CCN(C(=O)C(C)C)CC2)C1)C(=O)N[C@H](C=O)C[C@H]1CCNC1=O [Compound 8b, 7-Isobutyryl-7-azaspiro[3.5]nonan-2-yl ((S)-4-methyl-1-oxo-1-(((S)-1-oxo-3-((R)-2-oxopyrrolidin-3-yl)propan-2-yl)amino)pentan-2-yl)carbamate] | > 100 µM | – | – | –
14 | CC(C)C[C@H](NC(=O)OC1CC2(CCN(C(=O)C(C)C)CC2)C1)C(=O)N[C@@H](C[C@H]1CCNC1=O)C(O)S(=O)(=O)O (stereo partly drawn) [Compound 8c, Sodium (2S)-1-hydroxy-2-((S)-2-((((7-isobutyryl-7-azaspiro[3.5]nonan-2-yl)oxy)carbonyl)amino)-4-methylpentanamido)-3-((R)-2-oxopyrrolidin-3-yl)propane-1-sulfonate] | > 100 µM | 0.41 ± 0.01 µM | 0.52 ± 0.12 µM | –
15 | CC(C)C[C@H](NC(=O)OC1CC2(CCN(C(=O)Cc3ccccc3)CC2)C1)C(=O)N[C@H](C=O)C[C@H]1CCNC1=O [Compound 9b, 7-(2-Phenylacetyl)-7-azaspiro[3.5]nonan-2-yl ((S)-4-methyl-1-oxo-1-(((S)-1-oxo-3-((R)-2-oxopyrrolidin-3-yl)propan-2-yl)amino)pentan-2-yl)carbamate] | > 100 µM | – | – | –
16 | CC(C)C[C@H](NC(=O)OC1CC2(CCN(S(C)(=O)=O)CC2)C1)C(=O)N[C@H](C=O)C[C@H]1CCNC1=O [Compound 10b, 7-(Methylsulfonyl)-7-azaspiro[3.5]nonan-2-yl ((S)-4-methyl-1-oxo-1-(((S)-1-oxo-3-((R)-2-oxopyrrolidin-3-yl)propan-2-yl)amino)pentan-2-yl)carbamate] | > 100 µM | – | – | –
17 | CC(C)C[C@H](NC(=O)OC1CC2(CCN(C#N)CC2)C1)C(=O)N[C@H](C=O)C[C@H]1CCNC1=O [Compound 11b, 7-Cyano-7-azaspiro[3.5]nonan-2-yl ((S)-4-methyl-1-oxo-1-(((S)-1-oxo-3-((R)-2-oxopyrrolidin-3-yl)propan-2-yl)amino)pentan-2-yl)carbamate] | > 100 µM | – | – | –
18 | CC(C)C[C@H](NC(=O)OC1CN(C(=O)OC(C)(C)C)C1)C(=O)N[C@H](C=O)C[C@H]1CCNC1=O [Compound 12b, tert-Butyl 3-((((S)-4-methyl-1-oxo-1-(((S)-1-oxo-3-((R)-2-oxopyrrolidin-3-yl)propan-2-yl)amino)pentan-2-yl)carbamoyl)oxy)azetidine-1-carboxylate] | > 100 µM | – | – | –
19 | CC(C)C[C@H](NC(=O)OC1(C)CN(C(=O)OC(C)(C)C)C1)C(=O)N[C@H](C=O)C[C@H]1CCNC1=O [Compound 13b, tert-Butyl 3-methyl-3-((((S)-4-methyl-1-oxo-1-(((S)-1-oxo-3-((R)-2-oxopyrrolidin-3-yl)propan-2-yl)amino)pentan-2-yl)carbamoyl)oxy)azetidine-1-carboxylate] | > 100 µM | – | – | –
20 | CC(C)C[C@H](NC(=O)OCC1CN(C(=O)Cc2ccccc2)C1)C(=O)N[C@H](C=O)C[C@H]1CCNC1=O [Compound 15b, (1-(2-Phenylacetyl)azetidin-3-yl)methyl ((S)-4-methyl-1-oxo-1-(((S)-1-oxo-3-((R)-2-oxopyrrolidin-3-yl)propan-2-yl)amino)pentan-2-yl)carbamate] | > 100 µM | – | – | –
21 | CC(C)C[C@H](NC(=O)OCC1CN(C(=O)C2CC3CCC2C3)C1)C(=O)N[C@H](C=O)C[C@H]1CCNC1=O (stereo partly drawn) [Compound 16b, (1-(Bicyclo[2.2.1]heptane-2-carbonyl)azetidin-3-yl)methyl ((S)-4-methyl-1-oxo-1-(((S)-1-oxo-3-((R)-2-oxopyrrolidin-3-yl)propan-2-yl)amino)pentan-2-yl)carbamate] | > 100 µM | – | – | –
22 | CC(C)C[C@H](NC(=O)OCC1CN(S(C)(=O)=O)C1)C(=O)N[C@H](C=O)C[C@H]1CCNC1=O [Compound 17b, (1-(Methylsulfonyl)azetidin-3-yl)methyl ((S)-4-methyl-1-oxo-1-(((S)-1-oxo-3-((R)-2-oxopyrrolidin-3-yl)propan-2-yl)amino)pentan-2-yl)carbamate] | > 100 µM | – | – | –
23 | [2H]C([2H])(OC(=O)N[C@@H](CC(C)C)C(=O)N[C@H](C=O)C[C@H]1CCNC1=O)C1CN(C(=O)OC(C)(C)C)C1 [Compound 18b, tert-Butyl 3-(((((S)-4-methyl-1-oxo-1-(((S)-1-oxo-3-((R)-2-oxopyrrolidin-3-yl)propan-2-yl)amino)pentan-2-yl)carbamoyl)oxy)methyl-d2)azetidine-1-carboxylate] | > 100 µM | – | – | –
